According to article PMC8470881, “Membrane Interactions of Latarcins: Antimicrobial Peptides from Spider Venom” (International Journal of Molecular Sciences, 2021):

System: Bacillus subtilis subsp. spizizenii (DSM 347), Staphylococcus xylosus (DSM 20267), Escherichia coli (DSM 1116), Acinetobacter sp. (DSM 586)
Conditions: for MIC: irrespective of the bacterial strain (all four strains), Müller-Hinton medium, 20 h at 37 °C, maximum tested 256 µg/mL; for MIC (relative antimicrobial activity): relative activity over two Gram-positive and two Gram-negative strains
Experimental: The effect of latarcins against four types of bacteria was determined using a minimum inhibitory concentration (MIC) assay on two Gram-positive strains (Bacillus subtilis subsp. spizizenii and Staphylococcus xylosus) and two Gram-negative strains (Escherichia coli and Acinetobacter sp.). Although the antimicrobial activity of latarcins is well documented, these experiments served to ensure that all studies were performed on molecules that show the expected antimicrobial activity.
The minimum inhibitory concentration (MIC) was determined as previously reported. For each latarcin, MIC was determined against two Gram-positive strains, namely Bacillus subtilis subsp. spizizenii (DSM 347) and Staphylococcus xylosus (DSM 20267), and two Gram-negative strains: Escherichia coli (DSM 1116) and Acinetobacter sp. (DSM 586). Bacterial cultures were grown in Müller-Hinton medium (MHM) as described previously, and peptides were dissolved in sterile water containing 10% DMSO. The stock solution of peptides with 1024 µg/mL was prepared such that serial dilutions of peptides (from 256 µg/mL to 2 µg/mL) in MHM were prepared in 96-well plates with the penultimate column without peptide to act as positive control (no peptide) and the final column as negative control (no bacteria). Bacterial stock suspension was made with an OD of 0.2 units at 550 nm. This stock solution was further diluted (1:1000 for Gram-negative bacteria and 1:100 for Gram-positive bacteria), and subsequently, 50 µL of the resulting bacterial suspension was added to the wells except the final well to give a final concentration of 10^6 colony-forming units per mL. Afterwards, the 96-well plates were incubated at 37 °C for 20 h, and cellular respiration was detected by adding 20 µL of resazurin solution (200 µg/mL) for an additional 2 h at the same temperature.

Substance | MIC | MIC (relative antimicrobial activity)
H-GFFGKMKEYFKKFGASFKRRFANLKKRL-NH2 [Ltc5] | below 4 µg/mL | +++
H-SWKSMAKKLKEYMEKLKQRA-NH2 [Ltc3a] | 8 to 32 µg/mL | ++
H-QAFQTFKPDWNKIRYDAMKMQTSLGQMKKRFNL-OH [Ltc6a] |  | +
G E TF D K L K E K L K TFYQ K LV E K A ED L K G D L K A K LS-acid [Ltc7] | > 256 µg/mL | −
H-GLKDKFKSMGEKLKQYIQTWKAKF-NH2 [Ltc4a] | 8 to 32 µg/mL | ++
